According to patent US12269859B2, “Synthetic immune receptors and methods of use thereof” (Angeles Therapeutics, Inc., priority 2016, dated 2025):
“Also recorded” adds a separate entry of the source.

Experiments:
RAJI cells [1] = test: GLuc cytotoxicity assay, RAJI-GLuc cells; format: cell-based, human
Procedure: (D) Assay for Cytotoxic Activity in vitro and in vivo: The uninfected T cells or those expressing a control vector or SIR are cocultured with the target cell lines expressing a non-secretory form of a luciferase (such as GLuc, NLuc, Turboluc 16 etc.) for 4-96 hours and induction of cell lysis examined by measuring the luciferase activity as described in PCT/US17/52344. Alternate methods for measurement of cytotoxic activity (e.g., ^51Cr release assay or LDH release assay) can be used as well. The activity of T cells expressing a SIR can be also assayed in vivo using appropriate xenograft models in immunodeficient mice.
Cell death assay. To measure cell death, a novel assay based on ectopic cytosolic expression of Gluc or NLuc was utilized as described in PCT/US17/52344 “A Non-Radioactive Cytotoxicity Assay”. The method involves expression of a reporter in a target cells in a manner so that it is preferentially retained within the healthy cells but is either released from dead and dying cells or whose activity can be preferentially measured in dead and dying cells. The preferred reporter for this assay are 1) non-secreted forms of luciferases from the copepods, such as Gaussia princeps, Pleuromamma abdominalis, Metridia pacifica, Metridia curticauda, Metridia asymmetrica, Metridia okhotensis, Metridia longa, Lucicutia ovaliformis, Heterorhabdus tanneri, and Pleuromamma scutullata 2) engineered luciferase reporters from deep sea shrimp, such as NanoLuc. The sequence of several such reporter vectors is provided in SEQ ID NO: 881 to SEQ ID NO: 887. The above vectors were used to generate retrovirus and lentiviruses which in turn were used to generate polyclonal population of several target cell lines stably expressing GLuc, NLuc, TurboLuc or MLuc7 following selection with appropriate antibiotics. Unless indicated otherwise, the target cells stably expressing the different luciferases (GLuc, Nluc, MLuc7 or TurboLuc16) were plated in triplicate in a 384 well plate in the media used for growing the target cells. Target cells which grow in suspension were generally plated at a concentration of 2-3×10^4 per well, while target cells which grow as adherent monolayers were plated at a concentration of 1-2×10^4 per well. Unless indicated otherwise, the target cells were cocultured with the genetically modified T cells (i.e. those expressing SIR or CAR) at an Effector:Target (E:T) ratio varying from 1:1 to 10:1 for 4 hours to 96 hours. In the case target cells grow as adherent cells (e.g., HeLa cells), they were allowed to attach to the bottom of the wells overnight before the T cells were added. T cells mediated induction of lysis of target cells was assayed by increase of luciferase activity as measured by BioTek synergy plate reader by directly injecting 0.5×CTZ assay buffer containing native coeloentrazine (Nanaolight).
CTZ assay. A 100× stock solution of native coelenterazine (CTZ; Nanolight, cat #303) was made by dissolving 1 mg of lyophilized CT powder in 1.1 ml of 100% Methanol supplemented with 30 μl of 6N HCl to avoid oxidation of CTZ with time. To make CTZ assay buffer, the 100× stock solution of CTZ was diluted to 0.5× concentration in PBS. Unless indicated otherwise, a total volume of 15 μl of the CTZ assay buffer (as prepared above) was added to each well of a 384-well white plate (Greiner, 384 well white plate cat #781075) containing cells expressing the non-secretory form of the luciferase in approximately 50-60 μl volume of medium and plates were read for luminescence in endpoint mode using BioTek synergyH4 plate reader. For 96 well plates, cells were plated in 200 μl of media and approximately 50 μl of 0.5×CTZ assay buffer was added. Unless indicated otherwise, the 0.5×CTZ assay buffer was used for assaying the activity of GLuc, TurboLuc16, and MLuc7. The CTZ assay buffer (diluted to 0.125× concentration) was also used for measurement of NLuc activity in some experiments (see below).

RAJI cells [2] = test: RAJI xenograft model of lymphoma in NSG mice (survival); format: in vivo
Procedure: In vivo efficacy of SIR targeting CD19. […] SIR constructs and Gluc-PAC-G07 control construct encoding non-secretory form of Guassia Luciferase. Approximately half the cells were selected with puromycin while the other half was expanded without puromycin selection. NSG mice (Jackson Lab) were sub-lethally irradiated at a dose of 175 cGy. Approximately 24 hours post irradiation (day 2), mice were injected with 2.5×10^4 RAJI cells via tail-vein. […] Control mice (n=5) received no T cells or uninfected T cells. Mice were given human IL2 (400 IU intraperitoneally) on alternate days till the death of all mice in control group.
Approximately half the cells were selected with puromycin while the other half was expanded without puromycin selection. NSG mice (Jackson Lab) were sub-lethally irradiated at a dose of 175 cGy. Approximately 24 hours post irradiation (day 2), mice were injected with 2.5×10^4 RAJI cells via tail-vein. […] Control mice (n=5) received no T cells or uninfected T cells. Mice were given human IL2 (400 IU intraperitoneally) on alternate days till the death of all mice in control group.
SIR construct. NSG mice (Jackson Lab) were sub-lethally irradiated at a dose of 175 cGy. Approximately 24 hours post irradiation (day 2), mice were injected with 2.5×10^4 RAJI cells via tail-vein. […] SIR encoding lentivirus. Control mice (n=5) were injected with 5 million uninfected T cells or given no T cells.
SIR constructs. […] SIR were included as controls. NSG mice (n=5) were sub-lethally irradiated at a dose of 175 cGy. 24 hours post irradiation (day 2), mice were injected with 2.5×10^4 RAJI cells via tail-vein. […] Mice were given human IL2 (400 IU i.p.) on alternate days till the death of all mice in control group.
Human peripheral blood T cells isolated using CD3 magnetic beads were infected with lentiviruses expressing the indicated SIR constructs targeting Lym1 and Lym2. On day 1, the NSG mice were sub-lethally irradiated at a dose of 175 cGy. 24 hours post irradiation (day 2), mice were injected with 25×10^3 Raji cells intravenously. On day 3, the mice were treated intravenously with 10 million indicated CAR-T cells. Beginning on day 4, mice were injected with human IL-2 i.p. at a dose of 400 IU/mice every alternate day after the injection CAR-T cells till the death of all mice in control group.

[3] = FIG. 17: 2.5×10^4 RAJI cells, 5 million T cells on day 3, human IL2 (400 IU i.p.) on alternate days

Row | Substance | lysis of target cells by increase of GLuc activity (in words) (RAJI cells [1]; E:T 1:1, 96 hours) | lysis of target cells by increase of GLuc activity (in words) (RAJI cells [1]; E:T 10:1, 4 hours) | mean Gluc values (RAJI cells [1]; E:T 10:1, 4 hours) | Median Survival (RAJI cells [2]; [3]) | Median Survival (RAJI cells [2]; NSG mice, 2.5×10^4 RAJI cells via tail-vein, 5 million T cells on day 3, Table 13) | survival (in words) (RAJI cells [2]; experiment of Table 13)
1 | CD8SP-CD19Bu12-vL-V5-[TCRb-S57C-opt1]-F-P2A-SP-CD19Bu12-vH-Myc-[TCRa-T48C-opt1]-F-F2A-PAC [SEQ ID NO:1021] | increase in GLuc activity | increase in GLuc activity | 2547 | 51 days |  | 
2 | CD8SP-FMC63-vL-V5-[TCRb-S57C-opt1]-F-P2A-SP-FMC63-vH-Myc-[TCRa-T48C-opt1]-F-F2A-PAC [SEQ ID NO:900] | increase in GLuc activity | increase in GLuc activity; also recorded: induced effective target cell lysis; also recorded: Modest cytotoxicity | 3042 | 28.0 days | 27 days | conferred survival advantage
